Experimental findings from ChEMBL document CHEMBL1148292 (J Med Chem, 2004) are described below.

Where “and” joins values, the source holds several entries; their conditions need not be identical. Equal values may be shown once.

Experiment [1] deals with T1, Adenosine receptor A2b (Homo sapiens, UniProt P29275).
T1 sequence (P29275 whole entry): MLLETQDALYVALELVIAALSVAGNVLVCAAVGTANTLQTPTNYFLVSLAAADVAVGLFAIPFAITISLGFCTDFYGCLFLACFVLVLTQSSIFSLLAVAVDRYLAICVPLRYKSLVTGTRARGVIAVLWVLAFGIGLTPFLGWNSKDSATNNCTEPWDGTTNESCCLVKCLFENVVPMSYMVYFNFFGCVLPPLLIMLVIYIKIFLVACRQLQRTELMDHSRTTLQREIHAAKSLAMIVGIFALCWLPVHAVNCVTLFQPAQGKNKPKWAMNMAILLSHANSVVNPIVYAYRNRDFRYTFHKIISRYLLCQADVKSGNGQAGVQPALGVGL
Nature of the experiment: Binding affinity of compound for displacement of [3H]DPCPX binding in HEK293 membranes expressing human A2B adenosine receptors.

The target in the next experiment is T2, Adenosine receptor A1 (Homo sapiens, UniProt P30542).
T2 sequence (P30542 whole entry): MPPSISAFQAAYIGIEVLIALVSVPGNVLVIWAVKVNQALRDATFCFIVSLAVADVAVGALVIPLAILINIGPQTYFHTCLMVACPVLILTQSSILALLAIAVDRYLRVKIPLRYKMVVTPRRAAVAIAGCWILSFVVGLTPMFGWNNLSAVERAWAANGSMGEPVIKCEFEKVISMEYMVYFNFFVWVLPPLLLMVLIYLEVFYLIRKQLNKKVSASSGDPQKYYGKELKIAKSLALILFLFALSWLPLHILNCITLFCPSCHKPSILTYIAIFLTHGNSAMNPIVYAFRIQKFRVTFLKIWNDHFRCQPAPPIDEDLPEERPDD
In words: Displacement of specific [3H]DPCPX binding at human adenosine A1 receptor expressed in CHO cells. The class given is cell-based.

Experiment [2] has as its target T1, Adenosine receptor A2b. In words: Inhibitory activity against cAMP production in CHO cells transfected with human A2B adenosine receptor. Format: functional, cell-based.
For experiment [3], the target named is T1, Adenosine receptor A2b. In words: Binding affinity of compound for displacement of specific [3H]- DPCPX binding at human A2B receptors expressed in HEK293 cells. Format: cell-based.
Another experiment concerns the target T3, Adenosine receptor A3 (Homo sapiens, UniProt P0DMS8).
T3 sequence (P0DMS8 whole entry): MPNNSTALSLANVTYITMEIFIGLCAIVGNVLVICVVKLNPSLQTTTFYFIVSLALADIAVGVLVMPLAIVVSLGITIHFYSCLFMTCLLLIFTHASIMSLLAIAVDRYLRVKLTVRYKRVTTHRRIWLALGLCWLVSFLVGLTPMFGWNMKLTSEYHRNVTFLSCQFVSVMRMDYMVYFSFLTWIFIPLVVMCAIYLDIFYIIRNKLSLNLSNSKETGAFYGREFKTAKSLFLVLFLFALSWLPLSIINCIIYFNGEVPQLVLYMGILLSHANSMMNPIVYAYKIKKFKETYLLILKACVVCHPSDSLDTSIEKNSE
In words: Binding affinity of compound for displacement of specific [3H]MRE3008-F20 binding at human A3 receptors expressed in CHO cells. The class given is cell-based.

A further experiment concerns the target Adenosine receptor A2a (Homo sapiens, UniProt P29274). Nature of the experiment: Binding affinity of compound for displacement of specific [3H]ZM-241385 binding at human adenosine A2A receptor expressed in CHO cells. Format: cell-based.

Chain of Adenosine receptor A2a (P29274 whole entry): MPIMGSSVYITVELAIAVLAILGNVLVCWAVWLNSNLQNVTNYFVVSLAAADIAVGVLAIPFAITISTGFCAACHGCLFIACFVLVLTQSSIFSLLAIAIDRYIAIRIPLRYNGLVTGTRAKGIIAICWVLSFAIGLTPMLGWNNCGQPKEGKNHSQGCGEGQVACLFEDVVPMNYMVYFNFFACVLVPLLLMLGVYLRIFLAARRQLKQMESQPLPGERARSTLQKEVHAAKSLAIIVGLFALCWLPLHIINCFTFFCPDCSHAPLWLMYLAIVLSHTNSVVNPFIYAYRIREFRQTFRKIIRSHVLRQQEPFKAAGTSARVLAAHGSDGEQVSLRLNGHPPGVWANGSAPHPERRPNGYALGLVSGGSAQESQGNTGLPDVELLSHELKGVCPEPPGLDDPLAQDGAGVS

`C=CCn1c(=O)c2[nH]c(-c3cc(OCC(=O)N4CCN(c5ccccc5)CC4)nn3C)nc2n(CC=C)c1=O`: the Ki was 0.024 µM at Adenosine receptor A2b [1] and > 1 µM on Adenosine receptor A1. For the same molecule, the IC50 against Adenosine receptor A2b [2] amounted to 0.081 µM.
As to `CCCn1c(=O)c2[nH]c(-c3cc(OCC(=O)N4CCN(C)CC4)nn3C)nc2n(CCC)c1=O`, the inhibition constant (Ki) is 0.076 µM at Adenosine receptor A2b [1], > 1 µM on Adenosine receptor A1, > 1 µM at Adenosine receptor A1 (cho) and 0.076 µM at Adenosine receptor A2b [3]. This molecule also returned an IC50 at Adenosine receptor A2b [2] of 0.322 µM.
For `CCCn1c(=O)c2[nH]c(-c3ccc(OCC(=O)Nc4ccc(I)cc4)nc3)nc2n(CCC)c1=O`, the Ki at Adenosine receptor A2b [1] is 0.108 µM; on Adenosine receptor A1, > 1 µM. The molecule further displayed an IC50 against Adenosine receptor A2b [2] of 0.477 µM.
Consider `CCCn1c(=O)c2nc(-c3cc(OCC(=O)Nc4ccc5c(c4)OCO5)no3)[nH]c2n(CCC)c1=O`, for which the Ki at Adenosine receptor A3 is > 1 µM; at Adenosine receptor A2b [1] it was 0.047 µM; at Adenosine receptor A2a, > 1 µM; at Adenosine receptor A1, > 1 µM; at Adenosine receptor A2b [3] it was 0.047 µM. Further, it took 0.14 µM to reach half-maximal inhibition against Adenosine receptor A2b [2] (IC50).
With `CCCn1c(=O)c2[nH]c(-c3cc(NC(=O)Cc4ccc(OCc5ccccc5)cc4)nn3C)nc2n(CCC)c1=O`, the Ki at Adenosine receptor A2b [1] is 0.056 µM; at Adenosine receptor A1 it was > 1 µM. Moreover, the half-inhibitory concentration (IC50) on Adenosine receptor A2b [2] turned out to be 0.185 µM.
For the molecule `CCCn1c(=O)c2[nH]c(-c3cc(OCC(=O)Nc4ccc(C(=O)OCC)cc4)nn3C)nc2n(CCC)c1=O`, the Ki on Adenosine receptor A2b [1] is 0.032 µM; on Adenosine receptor A1 it was > 1 µM. At Adenosine receptor A2b [2], the IC50 was found to be 0.12 µM.
On to `CCCn1c(=O)c2[nH]c(-c3cc(OCC(=O)N4CCN(c5ccccc5)CC4)nn3C)nc2n(CCC)c1=O`, for which the inhibition constant Ki at Adenosine receptor A2b [1] was 0.012 µM and 0.015 µM; at Adenosine receptor A1, 0.26 µM; on Adenosine receptor A2b [3] it was 0.012 µM. Besides, the IC50 on Adenosine receptor A2b [2] was 0.07 µM and 0.065 µM.
Take `CCCn1c(=O)c2[nH]c(-c3cc(OCC(=O)Nc4ccc(OC)c(OC)c4)nn3C)nc2n(CCC)c1=O`: the figures for the Ki on Adenosine receptor A2b [1] and at Adenosine receptor A1 were 0.012 µM and > 1 µM, respectively. This molecule returned an IC50 on Adenosine receptor A2b [2] of 0.046 µM.
`CCCn1c(=O)c2[nH]c(-c3cc(OCC(=O)Nc4ccc(C(=O)O)cc4)nn3C)nc2n(CCC)c1=O`: the inhibition constant (Ki) at Adenosine receptor A2b [1] is 0.036 µM; on Adenosine receptor A1 it was > 1 µM. For the same molecule, on Adenosine receptor A2b [2], the IC50 turned out to be 0.115 µM.
`CCCn1c(=O)c2[nH]c(-c3cc(NC(=O)Cc4cccc(F)c4)nn3C)nc2n(CCC)c1=O` came in with an inhibition constant Ki at Adenosine receptor A2b [1] of 0.05 µM. On Adenosine receptor A2b [2], inhibition was half-maximal at 0.16 µM (IC50).
